From US7125849B2, “Peptide-based angiogenesis inhibitors and methods of use thereof” (The Scripps Research Institute, priority 2003, dated 2006)
No end group written: not given here.

Experiments:
Nck = target: T1, Nck (Homo sapiens, UniProt P16333); experiment: Affinity chromatography of endothelial cell extracts on peptide-agarose, western blot with anti-Nck; assay type: binding; settings: detergent extracts of human endothelial cells
T1 construct: endogenous in cells; host or cells: human endothelial cells (cell type for this assay not further specified)
Experimental: Affinity Chromatography. PRO or control peptides containing an N-terminal cysteine were dissolved in about 1 ml of coupling buffer (50 mM tris pH 8.0, 5 mM EDTA) and about 0.5 ml at about 3 mg/ml peptide added to about 2 ml of activated thiol-Sepharose (Pharmacia). Samples were incubated at a temperature of about 4° C. overnight with 1% β-mercaptoethanol added to block unreacted sites. Beads were rinsed and stored at a temperature of about 4° C. Endothelial cell cultures in 15 cm dishes were extracted in about 1.0 ml of cold (about 4° C.), lysis buffer (20 mM pH 7.4 sodium phosphate, 100 mM NaCl, 1% Triton X-100, 10 mM NaF, 2 mM EDTA, 1 mM sodium orthovanadate, 1 mM PMSF, 10 μg/ml each of leupeptin and aprotinin). The extracts were centrifuged for about 10 minutes at top speed in a microfuge and the supernatants were then removed. A 0.5 ml sample of each extract was incubated with about 10 μl of packed beads for about 1 hour, with rotation at a temperature of about 4° C. The beads were rinsed with lysis buffer (about 4×0.5 ml) and dissolved in SDS sample buffer (about 0.04 ml). Samples were analyzed by SDS PAGE on 10% gels and immunoblotting with anti-NCK (Santa Cruz) and HRP-protein A as secondary, and then were developed and detected using enhanced chemiluminescence (ECL kit, Amersham). […]

HMEC-1 cells = experiment: Endothelial cell migration by time lapse imaging
Experimental: Microscopy. To assay migration, HMEC-1 cells were treated with various concentrations of either PRO polypeptide or mutant peptide prior to plating. Cells were plated on coverslips coated with about 2 μg/ml of fibronectin (FN). Dishes containing coverslips were prepared as described by Kiosses et al., and maintained at a temperature of about 37° C., under an atmosphere containing about 5% carbon dioxide as described by Schwartz, J. Cell Biol., 1993, 120:1003–1010. The cells were viewed with a Nikon DiaPhot Microscope equipped with a SenSys cooled CCD video camera linked to a Silicon Graphics workstation running the Inovision ISEE software program. At the end of the experiment, images of each cell were outlined and the centroid (cell center) calculated. Displacement of the centroid was then used to determine movement of the cell over time. Statistical analysis was performed using Microsoft EXCEL statistics software. Approximately 50 cells were filmed and tracked per experiment, with at least 3 independent experiments for both the PRO and the mutant peptide. Results were expressed as means±standard error of the mean. The Students t-test was used to determine whether the observed differences were statistically significant (p=0.05).

endothelial cells = experiment: Contractility on flexible silicone rubber substrates (wrinkle assay); assay type: cell-based; settings: about 10 μM, FIG. 4
Text: Contractility. To visualize cell contractility, flexible rubber substrates were generated as described by Bussolino et al., J. Biol. Chem., 1989, 264:18284–18287. Briefly, silicone rubber (polydimethylsiloxane), having a viscosity of about 10000 centistokes (Dow Corning Co.) was applied to the coverslip at the bottom of 35 mm tissue culture dishes and coated with a thin layer of gold-palladium using a Hummer VI sputter coater, which polymerized a thin layer of silicon rubber. The surface was additionally coated with about 2 μg/ml of fibronectin (FN). Treated and un-treated endothelial cells were plated on the rubber substrate and allowed to adhere. Cells that had wrinkled the substrate beneath were visualized for about 4 hours and then scored by time-lapse phase contrast microscopy. Following this period, the cells were treated with Cytochalasin D (about 1 μg/ml) (Molecular Probes) to release all wrinkles that were due to actin-dependent cell tension.
To examine effects on contractility, cells were plated on elastic substrata, as described above, that can be pulled into wrinkles by cell-generated forces.

[1] = system: chorioallantoic membrane (CAM) of chick embryos; experiment: Chick CAM in vivo angiogenesis assay (bFGF-induced); settings: bFGF filters, examined 3 days later, compared to untreated filters, FIG. 6
Experimental: Chick Cam Assays. In vivo angiogenesis assays were performed essentially as previously described by Brooks, et al., Cell, 1994, 79:1157–1164, the relevant disclosures of which are incorporated herein by reference. Filter discs saturated with 1.0 ug/ml bFGF were placed on the chorioallantoic membranes (CAMs) of 10-day-old chicken embryos, immediately followed by daily topical addition of either a PRO inhibitory peptide (20 μgs) or a control peptide ([…]) in 20 μl of fibroblast growth medium (FGM). After 72 hours, the filter discs and associated CAM tissue were harvested and quantified. Angiogenesis was assessed as the number of visible blood vessel branch points within the defined area of the filter discs. At least 20 CAMs were used for each treatment.
New blood vessels invade the filter dishes within 2–5 days, and angiogenesis can be readily detected. Filters without any additions, with control or with the PRO compound of Example 1 were implanted and examined 3 days later.

[2] = system: Human umbilical vein endothelial cells (HUVECs); experiment: In vitro tube formation assay in 3-dimensional matrix; assay type: cell-based; settings: about 48 hours
Text: Formation of Three-dimensional Collagen Gels. Collagen gels were formed by mixing ice-cold gelation solution (10× M199, H2O, 0.53 mol/L NaHCO3, 200 mmol/L L-glutamine, type I collagen, 0.1 mol/L NaOH; 100:27.7:50:10:750:62.5 by volume) with cells in 1×-basal medium at a concentration of about 3×10^6 cells/ml at a ratio of about 4 volumes of gelation solution to about 1 volume of cells by the method of Yang et al. Am. J. Pathol., 1999, 155:[…] (hereinafter “Yang et al.”). The gels were allowed to form by incubation in a CO2-free incubator at a temperature of about 37° C. for about 30–60 minutes. […]
Quantification of Tube Formation. […] The total length of each tube or the long axis of single cells or groups of adjacent cells was measured, and the raw data was imported into a Microsoft Excel spread sheet. The mean tube length was determined for each well, followed by determination of the mean data and SEM for each experimental group.
As an initial test of the PRO effect on endothelial cell behavior in 3-dimensional matrices, in vitro tube formation assays in matrigel were carried out. […] Tube formation was quantitated by determining the length of endothelial cell tubes.

Row | Substance | Binding of Nck from endothelial cell lysates (Nck) | Endothelial cell migration rate (HMEC-1 cells; about 10 μM peptide, time lapse imaging, FIG. 3A) | Cell contractility (wrinkles of elastic substratum) (endothelial cells) | Angiogenesis in CAM (vascular branch points) [1] | Migration rates over the time course (argues against toxicity) (HMEC-1 cells; FIG. 3B) | Cell number [2] | Morphology of individual cells [2]
1 | SEQ ID NO: 5: control peptide in which the first two prolines of SEQ ID NO: 4 were replaced by the amino acids A and G (YGRKKRRQRRRGKAGAPPMRNTSTM; fusion protein fragment) | no detectable Nck was bound | no significant effect on migration | had no effect | essentially no effect |  |  | 
2 | YGRKKRRQRRRGKPPAPPMRNTSTM [SEQ ID NO: 4] |  |  |  |  | essentially constant | nor was cell number greatly altered | not noticeably perturbed
